Source: article PMC9256669, “Monomethyl auristatin antibody and peptide drug conjugates for trimodal cancer chemo-radio-immunotherapy” (Nature Communications, 2022)

Legend:
4MOSC1 tumors = assay: Orthotopic syngeneic tumor ACPP therapy, tumor volumes; assay type: in vivo, C57BL/6 mice; conditions: orthotopic 4MOSC1 tumors, conjugate monotherapy
Text: Orthotopic tongue xenograft tumors were established in 6-week-old NOD SCID mice by injecting 150,000 CAL27 parental (WT) or PIK3CA H1047R-expressing cells. […] On the last day of tumor xenograft measurements, mice were euthanized, tongues resected, imaged, and fixed. […] IR was delivered as 2 parallel opposed fields.

[1] = Pilot dose studies of CDX3379-MMAE ADC (response to reviewers); assay type: in vivo
Protocol: compares to MMAE in immune-competent cancer models. We have now tested the hypothesis raised by the Reviewer head on and present new data (Fig. 3h). First, we successfully synthesized a CDX3379-MMAF ADC (Supplementary Figs. 2c & 2d). Then, we tested CDX3379-MMAE + IR to […] directly in B16 […]
these findings, we hypothesize that MMAE mediated bystander effects improve radiosensitized tumor control when compared to MMAF tumor cell radiosensitization and continue with MMAE as our lead radiosensitizing […]
Comment 2: “authors claim that in syngeneic model MMAE lacked therapeutic efficacy irrespective of the coupled tumor-directed delivery vehicle. However, comparison here is misleading, as they compare MMAE activity coupled to an antibody vs a penetrating peptide. Instead, in order to fully address the concept that auristatin MMAE has limited antitumor activity in a syngeneic model a more appropriate control should be used, that is a MMAE coupled to a different mAb targeting other antigen (receptor). In addition, this would reinforce the evidence about the potential of ADC therapy in combination with IR in immunocompetent mouse […]
Response: In principle, we agree with the sentiment raised by the Reviewer to have another ADC targeting a different cell surface receptor. […]

B16 tumors = assay: Subcutaneous tumor therapy, ADC monotherapy, mouse survival; assay type: in vivo, C57BL/6 mice
Protocol: MOC1, B16, LL/2, and MC38 tumor cells were injected subcutaneously into the hindlimbs of 6-week-old female C57BL/6 albino mice in 100 µl of 1:1 Matrigel (BD) and PBS solution. Fractionated IR was delivered focally to the tumor-bearing hindlimbs (3 Gy to MC38 tumors and 5 Gy to LL/2 and B16 tumors) as indicated in figure legends using a PXI X-RAD 225 XL irradiator at maximal dose rate of 3 Gy/min with a beam-conditioning aluminum filter (Precision X-ray Irradiation). For RAG1 KO studies, 6-week-old female Rag1^tm1Mom mice were injected subcutaneously with tumor cells in their hindlimbs (Jackson Labs). For CD8 depletion studies, mice were i.p. injected with anti-CD8 (BioXCell #BE0117) at 10 mg/kg on days −6, −5 and −4 tumor cell implant and then weekly starting on day after tumor cells were injected or control antibody. […] Tumor volumes were measured and calculated using the formula as ½ * length * width^2. Mice were sacrificed when tumor volume reached >1500 mm^3, maximal tumor volume approved on our protocol for subcutaneous tumors.

Substance	tumor growth (4MOSC1 tumors)	anti-tumor activity in pilot studies ([1]; 1 nmole CDX3379-MMAE)	anti-tumor activity in pilot studies ([1]; 5 nmoles CDX3379-MMAE)	anti-tumor activity as measured by mouse survival (B16 tumors)
cyclo(RGD)fc-MC-HN-peg8-e9-oPLGC(Me)AG-r9-c-(MC-VC-PABC-MMAE)-CONH2 [ACPP-MMAE]	modest tumor growth delay			
CDX3379-MMAE: anti-HER3 antibody CDX3379 with 4 MMAE per antibody via MC-VC-PABC linker, labeled with Cy5		ineffective	anti-tumor activity	modest anti-tumor activity
